These results are taken from patent US7323452B2, “Method for the accelerated in vivo removal of ethanol” (Wardan, L.L.C., priority 2000, dated 2008).

Assay type in all cases: biochemical
One test deals with ADH (Equus caballus, UniProt P00327). Nature of the test: Rate of ADH catalyzed NAD+ oxidation of ethanol (rise in absorption at 340 nm) with additives. The note with it: pH 9.25. How it is done:
In Examples 51-53, the rate of ADH catalyzed NAD^+ oxidation of alcohol is followed by the rise in absorption at 340 nm, with and without additives. When a solvent (methanol) is needed to dissolve the additive, an equal amount is added to the “blank” or “control”. The results, as summarized in Table 3, indicate the effectiveness of Daidezin, Aloin and Methoxatin as accelerators.
To a 0.01M solution of ethanol (10 μL) in 1M pH 9.25 phosphate buffer, in a multi-well plate, is added a solution of aloin, of the indicated concentration (10 μL) and 10 μL of a solution containing 0.2 U/mL ADH and diluted to 180 μL with buffer. To the mixture is added 20 μL of a 0.01M solution of NAD^+ in deionized distilled water, and the absorbance at 340 nm is followed with time.
The procedure in Example 51 is repeated using Daidezin.
The procedure in Example 51 is repeated using Methoxatin.

Test [1] is described as follows: Kinetics of transition metal oxidation of NADH (decrease in absorption at 340 nm). From the text:
The rate of oxidation of NADH is followed over time as the decrease in the absorption at 340 nm.
The procedure in Example 43 is repeated replacing vanadyl sulfate with potassium ferricyanide.
The procedure in Example 43 is repeated replacing vanadyl sulfate with sodium molybdate.
The procedure in Example 43 is repeated replacing vanadyl sulfate with sodium phosphotungstate.

Test [2] in a line: DNP test for acetaldehyde formation: ethanol oxidation with the enzyme solution omitted. The note with it: no additive, stood 15 minutes. How it is done:
(§1) The reagent quenches any oxidative reaction of alcohol as well as detects the formation of acetaldehyde. An orange, crystalline precipitate indicates a positive reaction.
(§2) The DNP reagent is a fresh solution of 0.5 gm. of 2.4-dinitrophenylhydrazine in 20 mL methanol and 5 mL concentrated sulfuric acid, diluted to 50 mL of deionized distilled water.
The procedure in Example 1 was repeated with the omission of the enzyme solution.
The procedure in Example 3 was repeated with the omission of the enzyme solution.
The procedure in Example 4 was repeated with the omission of NAD^+.
The procedure in Example 2 is repeated using a pH 7.25 1M phosphate buffer.
The procedure in Example 4 is repeated using a pH 7.25 1M phosphate buffer.
The procedure in Example 5 is repeated using a pH 7.25 1M phosphate buffer.

Test [3] has as its target T1, Alcohol Dehydrogenase (from Equine liver) (Equus caballus, UniProt P00327).
T1 construct: Alcohol Dehydrogenase (from Equine liver); from tissue; host or cells: equine liver
The test is described as follows: DNP test for acetaldehyde formation: ethanol oxidation by NAD+ with Alcohol Dehydrogenase, with or without additive. How it is done:
as §1, §2
To a 0.05M solution of ethanol in a 1M (pH 9.25) phosphate buffer (10 μL) are added 10 μL each of a solution 0.08M in NAD^+ (in deionized distilled water) and 4 U/mL Alcohol Dehydrogenase (from Equine liver) in the above buffer, and diluted to 100 μL with buffer. At the end of a specified time, it was quenched with the DNP reagent.
The procedure in Example 1 was repeated with the addition of 10 μL of a 0.01M vanadyl sulfate solution in deionized distilled water.
The procedure-in Example 2 is repeated using a pH 7.25 1M phosphate buffer.
The procedure in Example 3 is repeated using a pH 7.25 1M phosphate buffer.

Marks after values point to notes of the source that are not given here.

T1 sequence (P00327 whole entry): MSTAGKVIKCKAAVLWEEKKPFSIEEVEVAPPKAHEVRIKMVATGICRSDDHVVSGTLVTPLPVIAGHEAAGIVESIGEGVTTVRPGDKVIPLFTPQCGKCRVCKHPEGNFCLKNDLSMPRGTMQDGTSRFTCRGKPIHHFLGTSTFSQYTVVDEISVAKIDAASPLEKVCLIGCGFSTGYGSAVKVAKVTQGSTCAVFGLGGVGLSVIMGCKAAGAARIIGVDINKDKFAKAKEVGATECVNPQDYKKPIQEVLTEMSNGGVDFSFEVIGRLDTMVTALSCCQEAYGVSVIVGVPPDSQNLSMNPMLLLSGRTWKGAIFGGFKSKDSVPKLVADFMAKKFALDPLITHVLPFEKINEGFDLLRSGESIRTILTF
Chain of ADH (P00327 whole entry): as above

In the case of `O=C1c2c(O)cccc2C([C@@H]2O[C@H](CO)[C@@H](O)[C@H](O)[C@H]2O)c2cc(CO)cc(O)c21` (stereo partly shown) [Aloin], the “Relative rates of Ethanol Oxidation in presence of Additives (Control = 1)” value (“Relative rates of Ethanol Oxidation” below) was 1.07 at ADH (additive .000005M) and 1.19 on ADH (additive .00001M).
On to `O=c1c(-c2ccc(O)cc2)coc2cc(O)ccc12` [Daidezin], for which the “Relative rates of Ethanol Oxidation” value stood at 1.28 on ADH (additive .000005M) and 1.38 on ADH (additive .00001M).
Take `O=C(O)c1cc(C(=O)O)c2c(n1)C(=O)C(=O)c1cc(C(=O)O)[nH]c1-2` [Methoxatin, 4,5-Dihydro-4,5-dioxo-1H-pyrrolo [2,3-f] quinoline-2,7,9-tricarboxylic acid]: the “Relative rates of Ethanol Oxidation” value on ADH (additive .000005M) worked out at 1.29; on ADH (additive .00001M), 1.59.
As for `[Na+].[Na+].[O]=[Mo](=[O])([O-])[O-]` [Molybdate, sodium molybdate], the “Slope” value in test [1] (pH 7.25) is “.00000012 mol/L/min”; in test [1] (pH 9.25), “.0000003 mol/L/min”. Besides, the “Slope (OD/Min)” value in test [1] (pH 7.25, absorption at 340 nm, * unexplained, text mentions an induction period) is listed as “.0025* OD/Min”; in test [1] (pH 9.25, absorption at 340 nm, * unexplained, text mentions an induction period), “.0035* OD/Min”.
As for `NC(=O)c1ccc[n+]([C@@H]2O[C@H](COP(=O)([O-])OP(=O)(O)OC[C@H]3O[C@@H](n4cnc5c(N)ncnc54)[C@H](O)[C@@H]3O)[C@@H](O)[C@H]2O)c1` [NAD^+, Nicotinamide Adenine Dinucleotide, reference compound], the “DNP reaction (acetaldehyde formation)” value in test [2] (pH 7.25, ethanol + NAD+) is “negative”; in test [2] (pH 9.25, ethanol + NAD+) it was “negative”.
For `O=S(=O)([O-])[O-].[O]=[V+2]` [vanadyl sulfate], the “DNP reaction (acetaldehyde formation)” value in test [3] (pH 7.25) and in test [3] (pH 9.25) was “positive” each time. In addition, the results for the “Slope” value in test [1] (pH 7.25) and in test [1] (pH 9.25) were “.0000036 mol/L/min” and “.000005 mol/L/min”, respectively. Besides, the figures for the “Slope (OD/Min)” value in test [1] (pH 7.25) and in test [1] (pH 9.25) were “.0079 OD/Min” and “.0112 OD/Min”, respectively.
Turning to ammonium molybdate, the “DNP results of Examples 1-5 repeated with the additive in place of vanadyl sulfate” value in test [3] (pH 9.25) is given as “almost identical results”.
As for sodium phosphotungstate, the “DNP results of Examples 25-30 repeated with the additive in place of vanadyl sulfate” value in test [3] (pH 7.25) is listed as “almost identical results”. Also, the “DNP results of Examples 1-5 repeated with the additive in place of vanadyl sulfate” value in test [3] (pH 9.25) is listed as “almost identical results”. For the same compound, in test [1] (pH 7.25), the “Slope” value worked out at 0 mol/L/min and the “Slope (OD/Min)” value was 0 OD/Min. In test [1] (pH 9.25), the “Slope” value was “.0000006 mol/L/min” and the “Slope (OD/Min)” value is recorded as “.007* OD/Min”.
